Experimental data published in US9481676B2, “Azepino[4,5-B]indoles and methods of use” (Medivation Technologies, Inc., priority 2008, dated 2016).

Biological target: T1, human recombinant adrenergic α2B receptor (Homo sapiens, UniProt P18089)
T1 construct: expressed in transfected cells; host or cells: CHO-K1 cells
T1 sequence (P18089 1-450): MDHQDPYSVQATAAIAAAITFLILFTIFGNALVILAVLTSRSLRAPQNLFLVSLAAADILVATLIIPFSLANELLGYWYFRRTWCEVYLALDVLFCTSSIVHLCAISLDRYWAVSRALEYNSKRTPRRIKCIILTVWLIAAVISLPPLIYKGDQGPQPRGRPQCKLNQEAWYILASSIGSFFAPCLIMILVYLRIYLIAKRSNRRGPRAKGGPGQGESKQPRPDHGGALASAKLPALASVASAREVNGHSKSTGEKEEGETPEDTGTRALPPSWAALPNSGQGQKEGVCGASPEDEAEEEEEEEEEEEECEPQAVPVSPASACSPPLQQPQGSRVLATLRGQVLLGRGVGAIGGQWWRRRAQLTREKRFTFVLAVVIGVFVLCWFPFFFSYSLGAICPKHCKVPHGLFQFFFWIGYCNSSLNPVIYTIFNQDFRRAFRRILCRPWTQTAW
Assay: Adrenergic alpha2B radioligand binding ([3H]Rauwolscine)
Conditions: compound at 1 μM; read-out: Adrenergic (1 μM) α2B, percent inhibition of specific binding
Description: To evaluate in radioligand binding assays the activity of compounds of the invention, human recombinant adrenergic α2B receptor expressed in Chinese hamster ovary (CHO-K1) cells (Uhlen S et al. Eur J. Pharmacol. 343(1):93, 1998) in a modified Tris-HCl buffer (50 mM Tris-HCl, pH 7.4, 12.5 mM MgCl2, 1 mM EDTA, 0.2% BSA) was used. Compounds of the invention were incubated with 2.5 nM [^3H]Rauwolscine for 60 min. at 25° C. Non-specific binding was estimated in the presence of 10 μM Prozosin. Receptor proteins were filtered and washed, the filters were then counted to determine [^3H]Rauwolscine specifically bound. Compounds were screened at 1 μM or lower, using 1% DMSO as vehicle. Biochemical assay results are presented as the percent inhibition of specific binding in Table 5.

Compound	inhibition at 1 µM
Cc1ccc2c(c1)c1c(n2CCc2ccccc2Cl)CCN(C)CC1 [Compound No. 69, 6-(2-chlorophenethyl)-1,2,3,4,5,6-hexahydro-3,9-dimethylazepino[4,5-b]indole]	-4%
CN1CCc2c(n(CC(=O)N3CCNCC3)c3ccc(Cl)cc23)CC1 [Compound No. 72, 2-(9-chloro-2,3,4,5-tetrahydro-3-methylazepino[4,5-b]indol-6(1H)-yl)-1-(piperazin-1-yl)ethanone]	7%
CN1CCc2c(n(CC(=O)Nc3ccccc3)c3ccc(Cl)cc23)CC1 [Compound No. 73, 2-(9-chloro-2,3,4,5-tetrahydro-3-methylazepino[4,5-b]indol-6(1H)-yl)-N-phenylacetamide]	21%
CN1CCc2c(n(CC(=O)N(C)C3CCCCC3)c3ccc(Cl)cc23)CC1 [Compound No. 74, 2-(9-chloro-2,3,4,5-tetrahydro-3-methylazepino[4,5-b]indol-6(1H)-yl)-N-cyclohexyl-N-methylacetamide]	27%
CN1CCc2c(n(CC(=O)OCc3ccccc3)c3ccc(Cl)cc23)CC1 [Compound No. 75, Benzyl-2-(9-chloro-2,3,4,5-tetrahydro-3-methylazepino[4,5-b]indol-6(1H)-yl)acetate]	21%
Cc1ccc2c(c1)c1c(n2/C=C/c2ccccc2)CCN(C)CC1 [Compound No. 229, (E)-3,9-dimethyl-6-styryl-1,2,3,4,5,6-hexahydroazepino[4,5-b]indole]	103%
COc1ccc(/C=C/n2c3c(c4cc(C)ccc42)CCN(C)CC3)c(F)c1 [Compound No. 230, (E)-6-(2-fluoro-4-methoxystyryl)-3,9-dimethyl-1,2,3,4,5,6-hexahydroazepino[4,5-b]indole]	99%
Cc1ccc2c(c1)c1c(n2CC(=O)N(C)C2CCCCC2)CCN(C)CC1 [Compound No. 232, N-cyclohexyl-2-(3,9-dimethyl-2,3,4,5-tetrahydroazepino[4,5-b]indol-6(1H)-yl)-N-methylacetamide]	39%
Cc1ccc2c(c1)c1c(n2/C=C/c2ccccc2F)CCN(C)CC1 [Compound No. 233, (E)-6-(2-fluorostyryl)-3,9-dimethyl-1,2,3,4,5,6-hexahydroazepino[4,5-b]indole]	100%
CN1CCc2c(n(/C=C/c3ccc(F)cc3)c3ccc(Cl)cc23)CC1 [Compound No. 234, (E)-9-chloro-6-(4-fluorostyryl)-3-methyl-1,2,3,4,5,6-hexahydroazepino[4,5-b]indole]	100%
Cc1ccc2c(c1)c1c(n2/C=C/c2ccc(Cl)cc2)CCN(C)CC1 [Compound No. 235, (E)-6-(4-chlorostyryl)-3,9-dimethyl-1,2,3,4,5,6-hexahydroazepino[4,5-b]indole]	98%
CN1CCc2c(n(/C=C/c3ccc(F)c(F)c3)c3ccc(Cl)cc23)CC1 [Compound No. 236, (E)-9-chloro-6-(3,4-difluorostyryl)-3-methyl-1,2,3,4,5,6-hexahydroazepino[4,5-b]indole]	103%
CN1CCc2c(n(CCc3ccccc3F)c3ccccc23)CC1 [Compound No. 237, 6-(2-fluorophenethyl)-3-methyl-1,2,3,4,5,6-hexahydroazepino[4,5-b]indole]	93%
C/C(=C\n1c2c(c3cc(C)ccc31)CCN(C)CC2)c1ccc(Cl)cc1Cl [Compound No. 238, (E)-6-(2-(2,4-dichlorophenyl)prop-1-enyl)-3,9-dimethyl-1,2,3,4,5,6-hexahydroazepino[4,5-b]indole]	103%
C/C(=C\n1c2c(c3cc(Cl)ccc31)CCN(C)CC2)c1ccc(Cl)cc1Cl [Compound No. 239, (E)-9-chloro-6-(2-(2,4-dichlorophenyl)prop-1-enyl)-3-methyl-1,2,3,4,5,6-hexahydroazepino[4,5-b]indole]	107%
CN1CCc2c(n(C#Cc3ccc(F)cc3)c3ccc(Cl)cc23)CC1 [Compound No. 281, 9-chloro-6-((4-fluorophenyl)ethynyl)-3-methyl-1,2,3,4,5,6-hexahydroazepino[4,5-b]indole]	99%
CN1CCc2c(n(C#Cc3ccc(Cl)cc3)c3ccc(Cl)cc23)CC1 [Compound No. 282, 9-chloro-6-((4-chlorophenyl)ethynyl)-3-methyl-1,2,3,4,5,6-hexahydroazepino[4,5-b]indole]	102%
Cc1ccc2c(c1)c1c(n2C(=O)Cc2ccc(F)cc2)CCN(C)CC1 [Compound No. 285, 1-(3,9-dimethyl-2,3,4,5-tetrahydroazepino[4,5-b]indol-6(1H)-yl)-2-(4-fluorophenyl) ethanone]	75%
